{"source": "patent US5496564A", "about": "“Suspendible composition and process for preparing the same” (Fujisawa Pharmaceutical Co., Ltd., priority 1990, dated 1996)", "assay": "Absorption test by oral administration: concentration in whole blood", "format": "in vivo", "conditions": "cynomolgus monkey, cynomolgus monkeys (six), oral 0.32 mg/kg, aqueous suspension of Prescription 7 diluted to 0.064 mg/ml, average ± standard error, read-out: Conc. in whole blood", "description": "The aqueous suspension obtained in Prescription 7 was used.\nThe oral agent mentioned above was diluted with purified water to have the concentration of FK 506 substance of 0.064 mg/ml. The resultant was orally administered to six cynomolgus monkeys (0.32 mg/kg).\nThe concentration of FK 506 substance in whole blood was measured 0.5, 1, 2, 4 and 6 hours after the administration in accordance with the aforesaid enzyme immunoassay.\nThe test results are represented by the average ± standard error.", "data": [{"molecule": "C=CCC1C=C(C)CC(C)CC(OC)C2OC(O)(C(=O)C(=O)N3CCCCC3C(=O)OC(C(C)=CC3CCC(O)C(OC)C3)C(C)C(O)CC1=O)C(C)CC2OC", "note": "(centres unmarked) [FK 506 substance, 17-allyl-1,14-dihydroxy-12-[2-(4-hydroxy-3-methoxycyclohexyl)-1-methylvinyl]-23,25-dimethoxy-13,19,21,27-tetramethyl-11,28-dioxa-4-azatricyclo-[22.3.1.0^4,9]octacos-18-ene-2,3,10,16-tetraone]", "values": [{"measurement": "concentration at 0.5 h", "setting": "0.5 hours", "result": "13.4 ± 9.88", "unit": "ng/mL"}, {"measurement": "concentration at 1 h", "setting": "1 hour", "result": "18.6 ± 9.36", "unit": "ng/mL"}, {"measurement": "concentration at 2 h", "setting": "2 hours", "result": "18.6 ± 9.89", "unit": "ng/mL"}, {"measurement": "concentration at 4 h", "setting": "4 hours", "result": "15.3 ± 7.77", "unit": "ng/mL"}, {"measurement": "concentration at 6 h", "setting": "6 hours", "result": "12.4 ± 9.33", "unit": "ng/mL"}]}]}
